Test system: MV-4-11 cells
Experiment: Gene expression microarray analysis (Affymetrix PrimeView) and GSEA
Assay type: cell-based, human
Parameters: RFU PODN (11730768_x_at) / Fold change /veh PODN (11730768_x_at) / RFU LINC00158 (11744669_a_at) / Fold change /veh LINC00158 (11744669_a_at) / RFU DUSP10 (11751237_a_at) / Fold change /veh DUSP10 (11751237_a_at) / RFU ID3 (11757404_x_at) / Fold change /veh ID3 (11757404_x_at) / RFU PLEKHG5 (11737974_s_at) / Fold change /veh PLEKHG5 (11737974_s_at) / RFU LRRC4B (11730491_at) / Fold change /veh LRRC4B (11730491_at) / RFU GIMAP4 (11747438_a_at) / Fold change /veh GIMAP4 (11747438_a_at) / RFU KRT8 (11758183_x_at) / Fold change /veh KRT8 (11758183_x_at) / RFU CNN1 (11734310_a_at) / Fold change /veh CNN1 (11734310_a_at) / RFU VPS37D (11726825_at) / Fold change /veh VPS37D (11726825_at) / RFU C10orf10 (11716522_x_at) / Fold change /veh C10orf10 (11716522_x_at) / RFU KIR2DL2 /// KIR2DL4 /// KIR2DL5A /// KIR2DL5B /// KIR2DS1 /// KIR2DS2 /// KIR2DS3 /// KIR2DS4 /// KIR3DL3 /// KIR3DL3 /// KIR3DS1 (11738374_at) / Fold change /veh KIR2DL2 /// KIR2DL4 /// KIR2DL5A /// KIR2DL5B /// KIR2DS1 /// KIR2DS2 /// KIR2DS3 /// KIR2DS4 /// KIR3DL3 /// KIR3DL3 /// KIR3DS1 (11738374_at) / RFU C1QL1 (11718748_at) / Fold change /veh C1QL1 (11718748_at) / RFU TMPRSS4 (11747572_a_at) / Fold change /veh TMPRSS4 (11747572_a_at) / RFU HAMP (11756126_x_at) / Fold change /veh HAMP (11756126_x_at) / RFU RNFT2 (11725882_a_at) / Fold change /veh RNFT2 (11725882_a_at) / RFU NR4A2 (11747474_a_at) / Fold change /veh NR4A2 (11747474_a_at) / RFU ABCC12 (11746883_a_at) / Fold change /veh ABCC12 (11746883_a_at) / RFU TMEM136 (11760407_x_at) / Fold change /veh TMEM136 (11760407_x_at) / RFU CLDN22 /// WWC2 (11732394_at) / Fold change /veh CLDN22 /// WWC2 (11732394_at) / RFU HLA-DPB1 (11760878_x_at) / Fold change /veh HLA-DPB1 (11760878_x_at) / RFU SPINT1 (11716480_a_at) / Fold change /veh SPINT1 (11716480_a_at) / RFU GAP43 (11754022_s_at) / Fold change /veh GAP43 (11754022_s_at) / RFU A4GNT (11735810_at) / Fold change /veh A4GNT (11735810_at) / RFU PRB3 (11715151_x_at) / Fold change /veh PRB3 (11715151_x_at) / RFU TUBB4B (11761932_at) / Fold change /veh TUBB4B (11761932_at) / RFU CAPN14 (11732068_a_at) / Fold change /veh CAPN14 (11732068_a_at) / RFU TMCC2 (11721928_a_at) / Fold change /veh TMCC2 (11721928_a_at) / RFU IRGQ (11745062_a_at) / Fold change /veh IRGQ (11745062_a_at) / RFU FAM174B (11720279_a_at) / Fold change /veh FAM174B (11720279_a_at) / RFU TMPRSS4 (11748680_a_at) / Fold change /veh TMPRSS4 (11748680_a_at) / RFU FAM212B (11763350_a_at) / Fold change /veh FAM212B (11763350_a_at) / RFU PLEKHG5 (11743358_a_at) / Fold change /veh PLEKHG5 (11743358_a_at) / RFU ZSCAN30 (11745921_a_at) / Fold change /veh ZSCAN30 (11745921_a_at) / RFU CMKLR1 (11741424_a_at) / Fold change /veh CMKLR1 (11741424_a_at) / RFU LOC101060620 /// MAPK8IP1 (11723275_at) / Fold change /veh LOC101060620 /// MAPK8IP1 (11723275_at) / RFU SPTSSB (11747773_x_at) / Fold change /veh SPTSSB (11747773_x_at) / RFU PRSS12 (11739890_at) / Fold change /veh PRSS12 (11739890_at) / RFU BIN1 (11741810_x_at) / Fold change /veh BIN1 (11741810_x_at) / RFU WNT11 (11732464_a_at) / Fold change /veh WNT11 (11732464_a_at) / RFU C10orf10 (11716521_a_at) / Fold change /veh C10orf10 (11716521_a_at) / RFU C5orf56 (11738089_at) / Fold change /veh C5orf56 (11738089_at) / RFU CYB561 (11721691_x_at) / Fold change /veh CYB561 (11721691_x_at) / RFU ANKRD19P (11752326_a_at) / Fold change /veh ANKRD19P (11752326_a_at) / RFU OR2T12 /// OR2T33 /// OR2T8 (11738714_s_at) / Fold change /veh OR2T12 /// OR2T33 /// OR2T8 (11738714_s_at) / RFU VCAN (11748164_a_at) / Fold change /veh VCAN (11748164_a_at) / RFU JSRP1 (11732532_at) / Fold change /veh JSRP1 (11732532_at) / RFU KRTAP10-11 (11738290_x_at) / Fold change /veh KRTAP10-11 (11738290_x_at) / RFU MYO3A (11730013_a_at) / Fold change /veh MYO3A (11730013_a_at) / RFU EBF3 (11725865_a_at) / Fold change /veh EBF3 (11725865_a_at) / RFU CAMK2N1 (11719241_x_at) / Fold change /veh CAMK2N1 (11719241_x_at) / RFU C5orf56 (11738088_a_at) / Fold change /veh C5orf56 (11738088_a_at) / RFU OLFML3 (11715873_a_at) / Fold change /veh OLFML3 (11715873_a_at) / RFU LOC100653217 /// NTM (11731650_a_at) / Fold change /veh LOC100653217 /// NTM (11731650_a_at) / RFU MAPK11 (11762145_a_at) / Fold change /veh MAPK11 (11762145_a_at) / RFU FIZ1 (11724087_x_at) / Fold change /veh FIZ1 (11724087_x_at) / RFU OASL (11726364_x_at) / Fold change /veh OASL (11726364_x_at) / RFU SOX15 (11748057_x_at) / Fold change /veh SOX15 (11748057_x_at) / RFU CD79A (11719716_a_at) / Fold change /veh CD79A (11719716_a_at) / RFU HIST1H1D (11736915_at) / Fold change /veh HIST1H1D (11736915_at) / RFU CASKIN2 (11723855_a_at) / Fold change /veh CASKIN2 (11723855_a_at) / RFU LOC730098 (11760151_x_at) / Fold change /veh LOC730098 (11760151_x_at) / RFU OR4N2 (11742367_at) / Fold change /veh OR4N2 (11742367_at) / RFU PRRT2 (11749266_a_at) / Fold change /veh PRRT2 (11749266_a_at) / RFU SNX32 (11753110_a_at) / Fold change /veh SNX32 (11753110_a_at) / RFU CDHR5 (11726645_a_at) / Fold change /veh CDHR5 (11726645_a_at) / RFU RCAN1 (11760418_a_at) / Fold change /veh RCAN1 (11760418_a_at) / RFU FAM167A (11723789_a_at) / Fold change /veh FAM167A (11723789_a_at) / RFU FAM26E (11764081_at) / Fold change /veh FAM26E (11764081_at) / RFU ISYNA1 (11749810_s_at) / Fold change /veh ISYNA1 (11749810_s_at) / RFU ACY1 (11761880_at) / Fold change /veh ACY1 (11761880_at) / RFU 11764098_at / Fold change /veh 11764098_at / RFU SAMD14 (11745864_x_at) / Fold change /veh SAMD14 (11745864_x_at) / RFU NPB (11741838_a_at) / Fold change /veh NPB (11741838_a_at) / RFU TMPRSS6 (11731388_a_at) / Fold change /veh TMPRSS6 (11731388_a_at) / RFU KRTAP10-2 (11738614_at) / Fold change /veh KRTAP10-2 (11738614_at) / RFU ARHGAP8 /// PRR5-ARHGAP8 (11727945_x_at) / Fold change /veh ARHGAP8 /// PRR5-ARHGAP8 (11727945_x_at) / RFU KRTAP5-7 /// NADSYN1 (11734609_at) / Fold change /veh KRTAP5-7 /// NADSYN1 (11734609_at) / RFU RASL12 (11751679_a_at) / Fold change /veh RASL12 (11751679_a_at) / RFU CDKN2B (11736163_a_at) / Fold change /veh CDKN2B (11736163_a_at) / RFU PRF1 (11729649_at) / Fold change /veh PRF1 (11729649_at) / RFU, ZNF638 /// ZNF638-IT1 / Fold change vs veh, ZNF638 /// ZNF638-IT1 / RFU, PANK3 / Fold change vs veh, PANK3 / RFU, SH3YL1 / Fold change vs veh, SH3YL1 / RFU, ZEB2 / Fold change vs veh, ZEB2 / RFU, NRIP1 / Fold change vs veh, NRIP1 / RFU, PTTG1IP / Fold change vs veh, PTTG1IP / RFU, CAPN2 / Fold change vs veh, CAPN2 / RFU, MED14 / Fold change vs veh, MED14 / RFU, SNORA58 / Fold change vs veh, SNORA58 / RFU, C1orf63 / Fold change vs veh, C1orf63 / RFU, LRRFIP1 / Fold change vs veh, LRRFIP1 / RFU, NDUFAF7 / Fold change vs veh, NDUFAF7 / RFU, SLC12A2 / Fold change vs veh, SLC12A2 / RFU, IBTK / Fold change vs veh, IBTK / RFU, ESF1 / Fold change vs veh, ESF1 / Fold change vs veh, TMEM50B / RFU, TAOK1 / Fold change vs veh, TAOK1 / RFU, ACBD3 / Fold change vs veh, ACBD3 / RFU, TMA16 / Fold change vs veh, TMA16 / RFU, RWDD3 / Fold change vs veh, RWDD3 / RFU, BCAT1 / Fold change vs veh, BCAT1 / RFU, EDEM3 / Fold change vs veh, EDEM3 / RFU, TMEM33 / Fold change vs veh, TMEM33 / RFU, WDR75 / Fold change vs veh, WDR75 / RFU, AHCTF1 / Fold change vs veh, AHCTF1 / RFU, TFRC / Fold change vs veh, TFRC / RFU, ZDHHC17 / Fold change vs veh, ZDHHC17 / RFU, NOM1 / Fold change vs veh, NOM1 / RFU, ARL8B / Fold change vs veh, ARL8B / RFU, ZBTB11 / Fold change vs veh, ZBTB11 / RFU, TAMM41 / Fold change vs veh, TAMM41 / RFU, KIAA1704 /// LOC100996395 / Fold change vs veh, KIAA1704 /// LOC100996395 / RFU, ING1 / Fold change vs veh, ING1 / RFU, TRMT61B / Fold change vs veh, TRMT61B / RFU, FUBP3 / Fold change vs veh, FUBP3 / RFU, TP53 / Fold change vs veh, TP53 / RFU, TNKS2 / Fold change vs veh, TNKS2 / RFU, ZFP14 / Fold change vs veh, ZFP14 / RFU, ACTR2 / Fold change vs veh, ACTR2 / RFU, PPP3R1 / Fold change vs veh, PPP3R1 / RFU, PIK3R1 / Fold change vs veh, PIK3R1 / RFU, HNRNPA1 / Fold change vs veh, HNRNPA1 / RFU, RNF170 / Fold change vs veh, RNF170 / RFU, ZNF28 / Fold change vs veh, ZNF28 / RFU, RNGTT / Fold change vs veh, RNGTT / RFU, OGT / Fold change vs veh, OGT / RFU, BRD1 / Fold change vs veh, BRD1 / RFU, MARS / Fold change vs veh, MARS / RFU, ZNF655 / Fold change vs veh, ZNF655 / RFU, FAHD1 / Fold change vs veh, FAHD1 / RFU, BDP1 / Fold change vs veh, BDP1 / RFU, LRRCC1 / Fold change vs veh, LRRCC1 / RFU, ARID1A / Fold change vs veh, ARID1A / RFU, ZNF146 / Fold change vs veh, ZNF146 / RFU, ZNF330 / Fold change vs veh, ZNF330 / RFU, GPN3 / Fold change vs veh, GPN3 / RFU, C9orf123 / Fold change vs veh, C9orf123 / RFU, N4BP2L2 / Fold change vs veh, N4BP2L2 / RFU, ARFIP1 / Fold change vs veh, ARFIP1 / RFU, FAM179B / Fold change vs veh, FAM179B / RFU, BCL10 / Fold change vs veh, BCL10 / RFU, UHRF1BP1L / Fold change vs veh, UHRF1BP1L / RFU, BET1 / Fold change vs veh, BET1 / RFU, CNOT2 / Fold change vs veh, CNOT2 / RFU, ZNF268 / Fold change vs veh, ZNF268 / Fold change vs veh, ZNF507 / RFU, DGCR2 / Fold change vs veh, DGCR2 / RFU, WDSUB1 / Fold change vs veh, WDSUB1 / Fold change vs veh, HSP90B1 /// MIR3652 / RFU, ADSS / Fold change vs veh, ADSS / RFU, GK / Fold change vs veh, GK / RFU, ZNF148 / Fold change vs veh, ZNF148 / RFU, TAF9 / Fold change vs veh, TAF9 / RFU, SLC1A5 / Fold change vs veh, SLC1A5 / RFU, SLMO2 / Fold change vs veh, SLMO2 / RFU, ABCC4 / Fold change vs veh, ABCC4 / RFU, LOC101060439 /// RAP1B / Fold change vs veh, LOC101060439 /// RAP1B / RFU, RFX7 / Fold change vs veh, RFX7 / RFU, GTPBP10 / Fold change vs veh, GTPBP10 / RFU, CNEP1R1 / Fold change vs veh, CNEP1R1 / RFU, BIVM-ERCC5 /// ERCC5 / Fold change vs veh, BIVM-ERCC5 /// ERCC5 / RFU, ILF3 / Fold change vs veh, ILF3 / RFU 11762660_at / Fold change /veh 11762660_at / RFU VCAN (11757783_s_at) / Fold change /veh VCAN (11757783_s_at) / RFU DDX43 (11728927_at) / Fold change /veh DDX43 (11728927_at) / RFU KRT8 (11758188_x_at) / Fold change /veh KRT8 (11758188_x_at) / RFU NKD1 (11759106_at) / Fold change /veh NKD1 (11759106_at) / RFU SRD5A1 (11742802_a_at) / Fold change /veh SRD5A1 (11742802_a_at) / RFU TPSAB1 /// TPSB2 (11721975_s_at) / Fold change /veh TPSAB1 /// TPSB2 (11721975_s_at) / RFU GSTM3 (11746129_a_at) / Fold change /veh GSTM3 (11746129_a_at) / RFU IL23R (11737362_x_at) / Fold change /veh IL23R (11737362_x_at) / RFU TMEM51 (11727254_a_at) / Fold change /veh TMEM51 (11727254_a_at) / RFU PIWIL2 (11732686_x_at) / Fold change /veh PIWIL2 (11732686_x_at) / RFU ORM1 (11744905_x_at) / Fold change /veh ORM1 (11744905_x_at) / RFU CCDC152 (11743942_at) / Fold change /veh CCDC152 (11743942_at) / RFU ECM1 (11717891_a_at) / Fold change /veh ECM1 (11717891_a_at) / RFU IL23R (11748794_a_at) / Fold change /veh IL23R (11748794_a_at) / RFU TNFAIP8L3 (11732012_x_at) / Fold change /veh TNFAIP8L3 (11732012_x_at) / RFU MBOAT4 (11741988_at) / Fold change /veh MBOAT4 (11741988_at) / RFU 11764193_at / Fold change /veh 11764193_at / RFU TMEM53 (11763286_at) / Fold change /veh TMEM53 (11763286_at) / RFU MAGEB2 (11727129_at) / Fold change /veh MAGEB2 (11727129_at) / RFU TMEM200A (11744735_a_at) / Fold change /veh TMEM200A (11744735_a_at) / RFU CCDC152 (11751479_a_at) / Fold change /veh CCDC152 (11751479_a_at) / RFU FAM211A (11726209_a_at) / Fold change /veh FAM211A (11726209_a_at) / RFU RGS16 (11746705_a_at) / Fold change /veh RGS16 (11746705_a_at) / RFU VCAN (11755009_s_at) / Fold change /veh VCAN (11755009_s_at) / RFU RHOB (11743442_s_at) / Fold change /veh RHOB (11743442_s_at) / RFU RGS16 (11720943_a_at) / Fold change /veh RGS16 (11720943_a_at) / RFU RGS16 (11720944_at) / Fold change /veh RGS16 (11720944_at) / RFU, VPS4B / Fold change vs veh, VPS4B / RFU, CREB1 / Fold change vs veh, CREB1 / RFU, DNAJC13 / Fold change vs veh, DNAJC13 / RFU, GNAQ / Fold change vs veh, GNAQ / RFU, CDK5R1 / Fold change vs veh, CDK5R1 / RFU, ZRANB3 / Fold change vs veh, ZRANB3 / RFU, CUL4A / Fold change vs veh, CUL4A / RFU, CCNY / Fold change vs veh, CCNY / RFU, UFL1 / Fold change vs veh, UFL1 / RFU, COG3 / Fold change vs veh, COG3 / RFU, DIAPH2 / Fold change vs veh, DIAPH2 / RFU, SKA2 / Fold change vs veh, SKA2 / RFU, AFF3 / Fold change vs veh, AFF3 / RFU, LMF1 / Fold change vs veh, LMF1 / RFU, IPO11 / Fold change vs veh, IPO11 / RFU, DFFB / Fold change vs veh, DFFB / RFU, FOXP1 / Fold change vs veh, FOXP1 / RFU, CARD8 / Fold change vs veh, CARD8 / RFU, STRN3 / Fold change vs veh, STRN3 / RFU, ADK / Fold change vs veh, ADK / RFU, RASSF2 / Fold change vs veh, RASSF2 / RFU, WIPF1 / Fold change vs veh, WIPF1 / RFU, LARP1B / Fold change vs veh, LARP1B / RFU, RASA1 / Fold change vs veh, RASA1 / RFU, RB1 / Fold change vs veh, RB1 / RFU, PPFIA1 / Fold change vs veh, PPFIA1 / RFU, MAT2A / Fold change vs veh, MAT2A / RFU, CCT5 / Fold change vs veh, CCT5 / RFU, WDR92 / Fold change vs veh, WDR92 / RFU, CUX1 / Fold change vs veh, CUX1 / RFU, TTC7A / Fold change vs veh, TTC7A / RFU, TMEM135 / Fold change vs veh, TMEM135 / RFU, DEPTOR / Fold change vs veh, DEPTOR / RFU, CPM / Fold change vs veh, CPM / RFU, DNAJB6 / Fold change vs veh, DNAJB6 / RFU, CACNA2D3 / Fold change vs veh, CACNA2D3 / RFU, DTX4 / Fold change vs veh, DTX4 / RFU, TFCP2 / Fold change vs veh, TFCP2 / RFU, GMCL1 /// GMCL1P1 / Fold change vs veh, GMCL1 /// GMCL1P1 / RFU, AEBP2 / Fold change vs veh, AEBP2 / RFU, SNHG1 /// SNORD22 /// SNORD25 /// SNORD26 /// SNORD27 /// SNORD28 /// SNORD29 /// SNORD31 / Fold change vs veh, SNHG1 /// SNORD22 /// SNORD25 /// SNORD26 /// SNORD27 /// SNORD28 /// SNORD29 /// SNORD31 / Fold change (Aza/veh), C12orf56 (ProbeSet 11735607_a_at) / Fold change (ACY-1035/veh), C12orf56 (ProbeSet 11735607_a_at) / Fold change (Aza/veh), FGFR1OP (ProbeSet 11751329_s_at) / Fold change (ACY-1035/veh), FGFR1OP (ProbeSet 11751329_s_at) / Fold change (Aza/veh), VPS36 (ProbeSet 11739960_a_at) / Fold change (ACY-1035/veh), VPS36 (ProbeSet 11739960_a_at) / RFU SYPL1 (11715823_x_at) / Fold change /veh SYPL1 (11715823_x_at) / RFU IGFBP7 (11715501_s_at) / Fold change /veh IGFBP7 (11715501_s_at) / RFU REEP3 (11722064_at) / Fold change /veh REEP3 (11722064_at) / RFU IGLL1 (11728026_x_at) / Fold change /veh IGLL1 (11728026_x_at): dose or concentration left out as unconfirmed
Conditions: MV-4-11 cells, 48 hours

Nc1ncn([C@@H]2O[C@H](CO)[C@@H](O)[C@H]2O)c(=O)n1 [azacitidine]
RFU LINC00158 (11744669_a_at): 7.44 RFU

Source: paper PMC5218480 (PLoS ONE, 2017)
